One compound from patent US12290564B2, “Methods and apparatuses for treating tumors” (RenovoRx, Inc., priority 2017, dated 2025) can be followed below.

The subject of this test is locally advanced pancreatic cancer. Nature of the test: Post-market registry study: intra-arterial (TAMP) delivery of gemcitabine with the RenovoCath RC120 catheter. It counts as in vivo, human. The protocol: A post-market registry study was conducted to assess patient survival and clinical outcomes using the RenovoCath™ RC120 catheter (RenovoRx, Los Altos, Calif.) in a clinical, prospective observational setting when used to deliver a chemotherapeutic to the pancreas as described in Table 1. [table] […] An interventional radiologist used the RenovoCath™ RC 120 catheter to optimize drug delivery to the tumor(s). At the conclusion of the case, the femoral artery arteriotomy was sealed and patient monitored as per standard institutional protocol. All patients enrolled during the two-year registry enrollment period were followed periodically for survival outcome. Patients were contacted by telephone at the following intervals after the final intra-arterial treatment: 6 months±30 days, 1 year±30 days and 2 years±30 days. Patients were assessed for serious adverse events with specific attention to events related to local delivery of chemotherapeutic agents to the pancreas and device performance. FIG. 10 is a graph 1000 illustrating the effect of the TAMP technique on patient survival after radiation therapy compared with the effect of the TAMP technique with no radiation therapy. Fifteen patients with locally advanced pancreatic cancer were treated with gemcitabine in a dose-escalated protocol administered in four cycles using the TAMP technique. […]

Consider `Nc1ccn([C@@H]2O[C@H](CO)[C@@H](O)C2(F)F)c(=O)n1` [gemcitabine], for which the “survival rates (survival percentage) of patients” value (gemcitabine by TAMP (eight treatments, or more than two treatments) compared with systemic infusion of gemcitabine (Chauffert et al. 2008), FIG. 9) is reported as “greater than the survival rates of the patients given systemic infusion of the same drug”. Further, the patient survival result (gemcitabine by TAMP, dose-escalated, four cycles, patients with prior radiation vs no prior treatment or only prior systemic chemotherapy, FIG. 10) was “significant improvement in survival”.
